Reference: patent US12291494B2, “Methods of treating fibrosis” (Nogra Pharma Limited, priority 2012, dated 2025)

Key:
[1] = test system: TGF-β1; test: DSS intestinal fibrosis study: Western blot of colon, TGF-β1; format: in vivo, mice; conditions: whole colon, OD normalized with GAPDH, expressed as percentage of control groups; DSS 153.6 ± 26.25
Method: (§1) For the Western blot analysis, 0.5 cm of frozen colonic samples were homogenized in RIPA Buffer containing 50 mM Tris HCl pH 7.6, 150 mM NaCl, 1.5 mM MgCl2, 5 mM EDTA, 1% Triton-X and 10% Glycerol, supplemented with 100 mM Sodium Fluoride (NaF), 2 mM Sodium Orthovanadate (Na3VO4), 10 mM Sodium Pyrophosphate (NaPPi), 1 mM phenylmethanesulphone (PMSF) and a classical protease-inhibitor cocktail containing 10 μg/mL Leupeptin and Aprotinin.
(§2) For each sample, 30 μg of protein was separated by PAGE and electroblotted. Nitrocellulose membranes (100% pure) were incubated (according with a specific protocol for each antibody) with primary antibodies directed against CTGF, Collagen-I and GAPDH (purchased from Abcam, Cambridge, UK; 1:1000 for 2 h at RT), diluted in 5% non-fat milk in 0.1% TBS-t. […] Optical density of target bands was determined using a computer-assisted densitometer and the ImageJ public domain software (W. S., Rasband, ImageJ, U. S. National Institutes of Health, Bethesda, MD; http://rsb.info.nih.gov/ij/, 1997-2011). Tissue levels were expressed as units of Optical Density (OD) per quantity of total proteins, normalized with internal control GAPDH and the results were expressed as percentage of control groups.

[2] = test system: C57BL/6 mice; test: DSS chronic colitis (Ex. 7): macroscopic colonic findings; format: in vivo
Method: Finally, seven days after the last DSS cycle administration, the animals of each group were sacrificed by cervical dislocation under deep CO2 anaesthesia and undergone to laparotomy. The colon were visualized and rapidly excised. The length of the whole colon-rectum and the weight of the distal 8 cm of colon-rectum were measured.
The macroscopic colonic lesions including dilation, thickness and stenosis were scored by an independent observer, unaware of the mice treatment. Tissue specimens from the colon were dissected and immediately frozen or fixed in fresh 4% formaldehyde (FA)/PBS solution for 3 h at room temperature followed by the standard procedure for paraffin embedding. Paraffin embedded tissues transversally sectioned at 3 μm were subject to Hematoxylin/Eosin staining, to assess the inflammatory degree, and Masson trichrome to better assess connective tissue and fibrosis. The stained sections were then blindly observed under an Olympus BX51 Light Microscope (Olympus, Optical Co. Ltd., Tokyo, Japan) by two pathologists which have performed the histological score evaluating: i. presence of ulcers (0=absent, 1=little ulcers, 2=big ulcers); ii. the inflammatory degree (0=absent 1=mild, 2=moderate and 3=severe); iii. depth of lesions (0=absent, 1=lesions extending in the submucosa, 2=lesions in the muscolarispropria and 3=lesions in the serosa); iv. degree of fibrosis (0=absent 1=mild, 2=moderate and 3=severe). The degree of intestinal inflammation was assessed according to the density and extent of chronic inflammatory infiltrate, loss of goblet cells, and bowel wall thickening. A total microscopic score will be obtained as sum of all scores (maximum score possible=[…]).
At no stage frank rectal bleeding or rectal prolapse were observed. The mice were sacrificed on day 15 and day 30, respectively, and the colon was subjected to macroscopic evaluation by measuring of colon weight (referred to the last 8 cm of the distal large bowel) and colon length and by observing the presence of adhesions, strictures, dilatation, thickness that was scored as 0 if absent; 1 if mild or moderate; and 2 if severe. The total macroscopic score was calculated as sum of all these score.

[3] = test system: α-SMA; test: Liver gene expression by quantitative Real Time PCR: α-SMA; format: in vivo, mice; conditions: liver mRNA, normalized to β-actin; CCl4 group 65.51 ± 22.24
Method: The effect of administration of compound 34 (GED) and the specific CB2 agonist (JWH-133) was evaluated on the level of gene expression of cytokines (IL-1β, TNF-α) and genes involved in the mechanism of fibrosis by quantitative Real Time PCR.
Total RNA was isolated from livers using Rneasy kit (Macherey Nagel, Hoerdt, France) according to the manufacturer's instructions. RNA quantification was performed using spectrophotometry. After treatment at 37° C. for 30 min with 20-50 units of RNase-free DNase I (Roche Diagnostics Corporation, Indianapolis, IN, USA), oligo-dT primers (Roche Diagnostics Corporation, Indianapolis, USA) were used to synthesize single-stranded cDNA. mRNAs were quantified using SYBR green Master Mix (Applera, Courtaboeuf, France) with murine specific oligonucleotides (see Table 2) in a GeneAmp Abiprism 7000 (Applera, Courtaboeuf, France). In each assay, calibrated and no-template controls were included. Each sample was run in triplicate. SYBR green dye intensity was analyzed using the Abiprism 7000 SDS software (Applera, Courtaboeuf, France). All results were normalized to the unaffected housekeeping gene β-actin.

[4] = test system: CTGF; test: DSS intestinal fibrosis study: Western blot of colon, CTGF; format: in vivo, mice; conditions: whole colon, OD normalized with GAPDH, expressed as percentage of control groups; DSS 115.1 ± 16.88; listed as GED
Method: as §1, §2

[5] = chronic DSS colitis, GED 30 mg/kg oral daily, mean ± SEM

## COC(Cc1ccc(N)cc1)C(=O)O (racemic) [Compound 34, (±)-2-methoxy-3-(4′-aminophenyl) propionic acid]
[1]
  TGF-β1 (Western blot): 130.5 ± 28.02
[2]; Ex. 7, GED 30 mg/kg oral daily
  reduction respect to the profibrotic effect of DSS (colon ratio weight/size): 26%
[2]; Ex. 7, GED 30 mg/kg oral daily, DSS 44.98±6.31, control 20.11±3.91
  ratio weight/size of the colon: 38.13±7.82
[2]; [5]
  Adhesions (score 0-2): 0.12 ± 0.1^¥¥
  Colon length: 7.092 ± 0.16**/ ^
  Colon weight/body weight ratio: 0.27 ± 0.012**/^¥¥
  Dilation (score 0-2): 1.12 ± 0.185**/^¥¥
  Stenosis (score 0-2): 0.32 ± 0.114**/^¥
  Thickness (score 0-2): 0.48 ± 0.108**/^¥
[2]; chronic DSS colitis, GED 30 mg/kg oral daily, mean ± SEM, DSS 3.112 ± 0.31
  Total macroscopic score: 2.02 ± 0.26**/^¥¥
[2]; distal 8 cm of colon-rectum, chronic DSS colitis, GED 30 mg/kg oral daily, mean ± SEM
  Colon weight: 0.269 ± 0.007 ^
[3]
  α-SMA: 42.81 ± 14.81
[4]
  CTGF (Western blot): 55.75±17.53
